Test results published in paper PMC8758724, “Molecular mechanism of agonism and inverse agonism in ghrelin receptor” (Nature Communications, 2022).
No end group written: not given here. *: point of attachment. Octanoyl = CCCCCCCC(=O)*

Tested on: ghrelin receptor mutants
Assay: IP1 accumulation, ghrelin receptor mutants, HEK293 cells, 37 °C 2 h (compound 21 containing 10 nM ghrelin)
Format: cell-based, human
Details: for ghrelin-induced activation, effect of mutation: peer review file
From the text: Fig. 2 The binding mode of PF-05190457 with the ghrelin receptor. a The detailed binding mode of PF-05190457 in the orthosteric pocket of the ghrelin receptor. The |Fo| − |Fc| omit map (contoured at 3.0 σ) for PF-05190457 (shown as marine blue sticks). […] The diazaspiro core is shown in pink, arm-1 is sky blue, and arm-2 is light green. The red solid lines indicate hydrogen bonds involved in interactions with the side chains of key residues. d–f Key residues of the ghrelin receptor (wheat sticks) involved in ligand binding in cavity III (d), cavity I (e), and cavity IV (f). The binding pocket is highly hydrophobic, and the particular polar network is shown as black dotted lines. g IP1 accumulation induced by the inverse agonist PF-05190457 and antagonist compound 21. Bars represent the difference in the calculated potency (pIC50) of the inverse agonist for mutations relative to the WT ghrelin receptor. Data are colored according to extent of effect. nd not detected, **P < 0.01, ***P < 0.001 (one-way analysis of variance (ANOVA) followed by Dunnett’s test, compared with the response of WT, P < 0.001, P < 0.001, P < 0.001, P > 0.999, nd, nd, P = 0.05, nd, P < 0.001, P < 0.001, nd, nd, nd, nd, nd, nd, P < 0.01, P = 0.264, P < 0.001, nd, P < 0.001, nd from left to right). Data represent the mean ± SEM from n = 3 biologically independent experiments performed in triplicate. […] The salt bridges between E124^3.33 and R283^6.55 as well as between R102^2.63 and Q120^3.29, are broken upon PF-05190457 binding.
To measure the activity of inverse agonist PF-05190457 (Tocris, Cat. No. 6350), we carried out IP1 accumulation assays for ghrelin receptor independent of agonist. The agonist ghrelin and antagonist compound 21 were also performed as the control. The cDNA of ghrelin receptor subcloned into pcDNA3.1(+) expression vector with a HA signal sequence followed by a Flag tag at the N-terminus. Point mutations used in our study were generated by using Q5 site-Directed Mutagenesis kit (NEB). All the constructs were verified by sequencing. The constructs were expressed in HEK293 cells using PEI transfection reagent (YEASEN, 40815es03) according to the manufacturer’s instruction. Cells were harvested 48 h post transfection.
IP accumulation was measured using Cisbio IP1 assay kit (Cisbio, 62IPAPEB), which has been previously described. In brief, the harvested cells were distributed in a low volume 96-well dish and stimulated with increased concentration of inverse agonist PF-05190457, agonist ghrelin peptide or antagonist compound 21 containing 10 nM ghrelin peptide at 37 °C for 2 h. After that, d2-labeled IP1 and cryptate-labeled anti-IP1 monoclonal antibody dissolved in Lysis Buffer were added to the wells. After 1 h incubation at room temperature. IP1 was quantified using Synergy H1 microplate reader (BioTek) with excitation at 320 nm, emission at 620 nm, and 665 nm. The accumulation of IP1 was calculated according to a standard dose–response curve in GraphPad Prism 8 (GraphPad Software). Data were represented as the mean ± SEM from three independent experiments and all experiments were repeated at least three times.
Supplementary Fig. 6: IP1 accumulation assay.
(a) Expression level of the ghrelin receptor mutants. Data represent the mean ± SEM from three independent experiments performed in triplicate. ns, not significant, **p < 0.01, ***p < 0.001 (one-way analysis of variance [ANOVA] followed by Dunnett’s test, compared with the response […]
0.001, p=0.996, p=0.008, p=0.999 from left to right). Data represent the mean ± SEM from n=3 biologically independent experiments performed in triplicate.
(b) IP1 accumulation measurement induced by inverse agonist PF-05190457(left), agonist ghrelin (middle) and antagonist compound 21 (right). ns, not significant; nd, not detected; ***p < 0.001 […]
< 0.001, nd, nd, nd, p=0.264, nd, nd from left to right). Data represent the mean ± SEM from […]

ghrelin: endogenous agonist, 28-amino acid peptide with octanoyl modification at the side chain of Ser+3 (GSS(Octanoyl)FLSPEHQRVQQRKESKKPPAKLQPR; UniProt Q9UBU3 24-51, looked up)
ghrelin-induced activation, effect of mutation (D99^2.60 mutant): decreased potency of ghrelin induced activation
potency, effect of mutation (F279^6.51A): impaired the potency
potency, effect of mutation (F312^7.42A): impaired the potency
ghrelin-induced activation, effect of mutation (R102^2.63 mutant): decreased potency of ghrelin induced activation
potency, effect of mutation (W276^6.48A): impaired the potency
